Data: ChEMBL document CHEMBL4261608, “Design, synthesis and anti-mycobacterial activity evaluation of benzofuran-isatin hybrids” (Eur J Med Chem, 2018)

System: Mycobacterium tuberculosis
Experiment: Antimycobacterial activity against ethambutol/isoniazid/rifampicin-resistant Mycobacterium tuberculosis incubated for 7 days by rapid direct susceptibility test
Assay type: functional
Details: 168 h

## NNC(=O)c1ccncc1 [ISONIAZID]
  MIC: > 128 µg/mL
